Measured values from patent US20260199468A1, “COMPOSITIONS AND METHODS FOR TREATING CANCER USING CELL THERAPIES” (Orca Biosystems, Inc., priority 2023, published 2026).

Columns and labels:
CAR T cells [1] = assay: In vitro CAR T cell cytotoxicity with tacrolimus; format: cell-based; conditions: higher concentrations of tacrolimus, FIGS. 2-5
Method: (§1) CAR T cells used in the clinical study described in Example 1 were assessed according to standard in vitro methods; CD19 CAR expression was assessed (FIG. 2); CAR T cell cytotoxicity was assessed (FIG. 3); CD3 T cell proliferation was assessed (FIG. 4); and CAR T cell proliferation was assessed (FIG. 4).

CAR T cells [2] = assay: In vitro CAR T cell proliferation with tacrolimus; format: cell-based; conditions: higher concentrations of tacrolimus; in the presence or absence of tumor
Method: as §1

[3] = healthy subjects, oral administration; cited from earlier work

With `C=CC[C@@H]1/C=C(\C)C[C@H](C)C[C@H](OC)[C@H]2O[C@@](O)(C(=O)C(=O)N3CCCC[C@H]3C(=O)O[C@H](/C(C)=C/[C@@H]3CC[C@@H](O)[C@H](OC)C3)[C@H](C)[C@@H](O)CC1=O)[C@H](C)C[C@@H]2OC` [tacrolimus] the “CAR T cytotoxicity” value (CAR T cells [1]) was “reduced CAR T cytotoxicity”, the “CAR T cytotoxicity” value (CAR T cells [1]; listed as Tacrolimus) was “Reduces CAR T Cytotoxicity in a Dose-Dependent Manner” and the “CAR T cell proliferation” value (CAR T cells [2]) was “reduced CAR T cell proliferation”. For the same compound, the absolute bioavailability [3] was 18±5%.
